# According to ChEMBL document CHEMBL3217626, “Identification of 4,6-diaryl-1,4-dihydropyridines as a new class of neuroprotective agents” (Medchemcomm, 2013):
# Legend:
# SH-SY5Y [1] = experiment: Neuroprotective activity in human SH-SY5Y cells under oxygen and glucose deprived condition assessed as protection against oxidative stress at 5 uM co-incubated for 4 hrs under anaerobic condition measured after 20 hrs by MTT assay relative to control; assay type: functional
# SH-SY5Y [2] = experiment: Neuroprotective activity in human SH-SY5Y cells under oxygen and glucose deprived condition assessed as cell survival at 5 uM co-incubated for 4 hrs under anaerobic condition measured after 20 hrs by MTT assay relative to control; assay type: functional; details: read-out: Survival
# SH-SY5Y [3] = experiment: Neuroprotective activity in human SH-SY5Y cells under serum-free condition assessed as protection against potassium-induced toxicity at 5 uM after 24 hrs by MTT assay relative to control; assay type: functional
# SH-SY5Y [4] = experiment: Neuroprotective activity in human SH-SY5Y cells under serum-free condition assessed as cell survival at 5 uM after 24 hrs by MTT assay in presence of potassium relative to control; assay type: functional; details: read-out: Survival
# SH-SY5Y [5] = experiment: Neuroprotective activity in human SH-SY5Y cells assessed as inhibition of potassium-induced Ca2+ increase at 10 uM preincubated for 15 mins followed by potassium addition measured for 14 seconds by fluorescence assay relative to control; assay type: functional
# SH-SY5Y [6] = experiment: Neuroprotective activity in human SH-SY5Y cells assessed as inhibition of potassium-induced Ca2+ increase preincubated for 15 mins followed by potassium addition measured for 14 seconds by fluorescence assay; assay type: functional, cell-based
# SH-SY5Y [7] = experiment: Neuroprotective activity in human SH-SY5Y cells under oxygen and glucose deprived condition assessed as protection against oxidative stress at 0.1 uM co-incubated for 4 hrs under anaerobic condition measured after 20 hrs by MTT assay relative to control; assay type: functional
# SH-SY5Y [8] = experiment: Neuroprotective activity in human SH-SY5Y cells under oxygen and glucose deprived condition assessed as cell survival at 0.1 uM co-incubated for 4 hrs under anaerobic condition measured after 20 hrs by MTT assay relative to control; assay type: functional; details: read-out: Survival
# SH-SY5Y [9] = experiment: Neuroprotective activity in human SH-SY5Y cells under oxygen and glucose deprived condition assessed as protection against oxidative stress at 0.3 uM co-incubated for 4 hrs under anaerobic condition measured after 20 hrs by MTT assay relative to control; assay type: functional
# SH-SY5Y [10] = experiment: Neuroprotective activity in human SH-SY5Y cells under oxygen and glucose deprived condition assessed as cell survival at 0.3 uM co-incubated for 4 hrs under anaerobic condition measured after 20 hrs by MTT assay relative to control; assay type: functional; details: read-out: Survival
# SH-SY5Y [11] = experiment: Neuroprotective activity in human SH-SY5Y cells under serum-free condition assessed as protection against potassium-induced toxicity at 0.3 uM after 24 hrs by MTT assay relative to control; assay type: functional
# SH-SY5Y [12] = experiment: Neuroprotective activity in human SH-SY5Y cells under serum-free condition assessed as cell survival at 0.3 uM after 24 hrs by MTT assay in presence of potassium relative to control; assay type: functional; details: read-out: Survival
SMILES,Activity (SH-SY5Y [1]) [%],viability at 5 µM (SH-SY5Y [2]) [%],Activity (SH-SY5Y [3]) [%],viability at 5 µM (SH-SY5Y [4]) [%],inhibition at 10 µM (SH-SY5Y [5]) [%],IC50 (SH-SY5Y [6]) [µM],inhibition (SH-SY5Y [6]),Activity (SH-SY5Y [7]) [%],viability at 0.1 µM (SH-SY5Y [8]) [%],Activity (SH-SY5Y [9]) [%],viability at 0.3 µM (SH-SY5Y [10]) [%],Activity (SH-SY5Y [11]) [%],viability at 0.3 µM (SH-SY5Y [12]) [%]
O=C1CCCC2=C1C(c1ccccc1)C=C(c1ccccc1)N2 (stereo unspecified),26.8,62.1,28.23,66.4,41.2,,,,,,,,
CC(=O)C1=C(C)NC(c2ccccc2)=CC1c1ccccc1 (stereo unspecified),9.06,53.9,32.46,67.4,33.8,,,,,,,,
CC1=C(C(=O)SC(C)(C)C)C(c2ccc(C)cc2)C=C(c2ccc(C)cc2)N1 (stereo unspecified),12.66,56,36.24,69.8,12.6,,,,,,,,
CCOC(=O)C1=C(CC)NC(c2ccccc2)=CC1c1ccccc1 (stereo unspecified),17.69,57.6,31.37,67.3,53.8,12.8,Dose-dependent effect,,,,,,
CCOC(=O)C1=C(C)NC(c2ccccc2)=CC1c1ccccc1 (stereo unspecified),22.76,60.8,34.65,67.6,32.5,,,,,,,,
CC1=C(C(=O)SC(C)(C)C)C(c2ccc(C)cc2)C=C(c2ccccc2)N1 (stereo unspecified),31.16,64.7,30.44,67.4,36.8,,,,,,,,
COc1ccc(C2C=C(c3ccccc3)NC(C)=C2C(=O)SC(C)(C)C)cc1 (stereo unspecified),17.38,57.6,31.27,66.7,52.3,26.8,Dose-dependent effect,,,,,,
CCOC(=O)C1=C(C)NC(c2ccc(C)cc2)=CC1c1cccs1 (stereo unspecified),31.04,64.7,50.73,75.6,36.6,,,,,,,,
CC1=C(C(=O)SC(C)(C)C)C(/C(C)=C/c2ccccc2)C=C(c2ccccc2)N1 (stereo unspecified),35.82,63.9,35.26,69,40,,,,,,,,
CC1=C(C(=O)SC(C)(C)C)C(c2ccc(Br)cc2)C=C(c2ccc(C)cc2)N1 (stereo unspecified),21.83,60.3,34.46,67.2,35.4,,,,,,,,
COc1ccc2[nH]cc(CCNC(C)=O)c2c1 [MELATONIN],,,,,,,,28.85,65.8,,,,
CC1=C(C(=O)SC(C)(C)C)C(c2ccccc2)C=C(c2ccccc2)N1 (stereo unspecified),24.91,61.5,34.13,68,35.1,,,,,,,,
COC(=O)C1=C(C)NC(C)=C(C(=O)OC)C1c1ccccc1[N+](=O)[O-] [NIFEDIPINE],,,,,59.8,,,,,12.4,55,15.76,58.7
CCOC(=O)C1=C(C)NC(c2ccc(Cl)cc2)=CC1c1ccccc1 (stereo unspecified),19.26,58.9,36.57,69.3,44.9,,,,,,,,
